The results in this text go back to ChEMBL document CHEMBL3580626, “Scaffold hopping of potential anti-tumor agents by WEGA: a shape-based approach” (Medchemcomm, 2014).

The subject of one test is HepG2. Briefly: Cytotoxicity against human HepG2 cells assessed as reduction in cell viability after 48 hrs by CCK8 assay. In kind it is functional, cell-based. The note with it: HepG2, 48 h. Background: Formazan colour is commonly taken as a measure of viable cells.
The nature of test [1]: Cytotoxicity against human LO2 cells assessed as reduction in cell viability after 48 hrs by CCK8 assay. In kind it is cell-based. The conditions noted are these: L02, 48 h.

Regarding `CC(=O)N1c2ccccc2CCc2ccc(N)cc21`, the IC50 in the test with HepG2 (read-out: pIC50 (converted)) is over 158 µM.

Turning to `COC1=Cc2ccccc2N(C(N)=O)c2ccccc21`, the IC50 in the test on HepG2 (read-out: pIC50 (converted)) is over 158 µM.

On to `CC(=O)N1c2ccccc2CCc2ccc(Cl)cc21`, for which the IC50 with HepG2 (read-out: pIC50 (converted)) is over 158 µM.

For `COC1=Cc2ccccc2Nc2ccccc21`, in the test on HepG2 (read-out: pIC50 (converted)), the IC50 was 70.8 µM.

For `CC(CN1c2ccccc2S(=O)(=O)c2ccccc21)N(C)C` (stereo unspecified), the IC50 with HepG2 (read-out: pIC50 (converted)) was over 158 µM.

For `CCN1c2ccccc2CCc2ccc(Cl)cc21`, in the test with HepG2 (read-out: pIC50 (converted)), the IC50 was over 158 µM.

Turning to `c1ccc2c(c1)[nH]c1cccc(OCC3CO3)c12` (stereo unspecified), the IC50 in the test with HepG2 (read-out: pIC50 (converted)) was 17 µM; in test [1], over 160 µM.

Consider `O=C(Cl)N1c2ccccc2C=Cc2ccccc21`, for which the IC50 in the test on HepG2 (read-out: pIC50 (converted)) is 33.9 µM.

As to `Oc1cccc2[nH]c3ccccc3c12`, the IC50 with HepG2 (read-out: pIC50 (converted)) is 123 µM.

`c1ccc2c(c1)CCc1ccccc1N2`: in the test on HepG2 (read-out: pIC50 (converted)), the IC50 is over 158 µM.

For `NC(=O)N1c2ccccc2C=Cc2ccccc21` [CARBAMAZEPINE], the IC50 in the test on HepG2 (read-out: pIC50 (converted)) is over 158 µM.

With `CC(C(=O)O)c1ccc2c(c1)[nH]c1ccc(Cl)cc12` (stereo unspecified) [CARPROFEN], the IC50 in the test with HepG2 (read-out: pIC50 (converted)) was 166 µM.

As to `COc1ccccc1OCCNCC(O)COc1cccc2[nH]c3ccccc3c12` (stereo unspecified) [CARVEDILOL], the values for the IC50 (with HepG2 (read-out: pIC50 (converted)); in test [1]) were 17.4 µM and 85 µM, respectively.

As to `CN1CCN(C2=Nc3cc(Cl)ccc3Nc3ccccc32)CC1` [CLOZAPINE], the IC50 in the test on HepG2 (read-out: pIC50 (converted)) was 47.9 µM.

`OCCN1CCN(CCCN2c3ccccc3Sc3ccc(C(F)(F)F)cc32)CC1` [FLUPHENAZINE]: the IC50 in the test with HepG2 (read-out: IC50) was 4.4 µM; with HepG2 (read-out: pIC50 (converted)), 4.37 µM; in test [1], over 160 µM.

Turning to `C1=Cc2ccccc2Nc2ccccc21` [IMINOSTILBENE], the IC50 in the test on HepG2 (read-out: pIC50 (converted)) is over 158 µM.

In the case of `CC(CN(C)C)CN1c2ccccc2Sc2ccccc21` (stereo unspecified) [METHYLPROMAZINE], the IC50 in the test with HepG2 (read-out: pIC50 (converted)) is 61.7 µM.

With `NC(=O)N1c2ccccc2CC(=O)c2ccccc21` [OXCARBAZEPINE], the IC50 was 19.5 µM with HepG2 (read-out: pIC50 (converted)) and over 160 µM in test [1].

`OCCN1CCN(CCCN2c3ccccc3Sc3ccc(Cl)cc32)CC1` [PERPHENAZINE]: the IC50 with HepG2 (read-out: pIC50 (converted)) was 16.2 µM; in test [1], over 160 µM.

In the case of `c1ccc2c(c1)Nc1ccccc1O2` [PHENOXAZINE], in the test with HepG2 (read-out: pIC50 (converted)), the IC50 was 204 µM.
